Test results published in patent publication US10703746B2, “Mutant IDH1 inhibitors useful for treating cancer” (THE UNITED STATES OF AMERICA, AS REPRESENTED BY THE …, priority 2014, dated 2020).

What was measured:
IDH1 R132H = IDH1 R132H (Homo sapiens, UniProt O75874, R132H); test: IDH1 R132H enzymatic assay (NADPH depletion coupled to diaphorase/resazurin); type: biochemical
IDH1 R132C = IDH1 R132C (Homo sapiens, UniProt O75874, R132C); test: IDH1 R132C enzymatic assay (NADPH depletion coupled to diaphorase/resazurin); type: biochemical
How it was run: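 NADPH depletion, read via diaphorase/resazurin coupling, after adding substrate at 0.6 mM α-KG and 0.012 mM NADPH. Beforehand, 0.00032 mg/mL enzyme sat with compound 30 min at room temperature in pH 6.5 potassium phosphate buffer with MgCl2, glycerol and BSA.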

[1] = enzymatic inhibition, IDH1 R132H
[2] = enzymatic inhibition, IDH1 R132C
[3] = IDH1 R132H enzymatic inhibition, IC50 class
[4] = IDH1 R132C enzymatic inhibition, IC50 class

Chain of IDH1 R132C (O75874 whole entry R132C): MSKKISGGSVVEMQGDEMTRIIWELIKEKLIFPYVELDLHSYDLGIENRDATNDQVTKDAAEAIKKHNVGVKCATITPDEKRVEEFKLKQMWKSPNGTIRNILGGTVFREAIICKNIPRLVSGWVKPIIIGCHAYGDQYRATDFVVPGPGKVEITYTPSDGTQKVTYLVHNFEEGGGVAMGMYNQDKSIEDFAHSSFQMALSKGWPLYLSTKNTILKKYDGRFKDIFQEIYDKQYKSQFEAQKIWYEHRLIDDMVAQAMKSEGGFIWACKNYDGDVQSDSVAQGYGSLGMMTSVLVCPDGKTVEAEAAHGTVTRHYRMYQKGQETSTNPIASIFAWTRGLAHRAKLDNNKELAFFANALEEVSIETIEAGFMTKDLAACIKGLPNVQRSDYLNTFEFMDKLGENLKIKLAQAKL
Chain of IDH1 R132H (O75874 whole entry R132H): as the sequence (O75874 whole entry R132C) above, with C132H counted along it

Structure (SMILES)	IC50 (IDH1 R132H; [1]) [nM]	IC50 (IDH1 R132C; [2]) [nM]	IC50 (IDH1 R132H; [3]) [nM]	IC50 (IDH1 R132C; [4]) [nM]
CCOc1ncc(Cl)cc1-n1c(C=C(C)C)c(C(=O)N2CCNCC2)cc(-c2nc(-c3ccc(C(F)F)nc3)cs2)c1=O [Compound 580]	< 300	300 to 1000		
CCc1cccc(CC)c1-n1c(C=C(C)C)c(C(=O)N2CCNCC2)cc(-c2nc(-c3ccc(C(F)(F)F)cc3)cs2)c1=O [Compound 581, 1-(2,6-diethylphenyl)-6-(2-methylprop-1-en-1-yl)-5-(piperazine-1-carbonyl)-3-(4-(4-(trifluoromethyl)phenyl)thiazol-2-yl)pyridin-2(1H)-one]	< 300	< 300		
CCc1ccc(F)cc1-n1c(C=C(C)C)c(C(=O)N2CCNCC2)cc(-c2nc(-c3ccc(C(F)(F)F)cc3)cs2)c1=O [Compound 583]	< 300	< 300		
COCc1ncc(Cl)cc1-n1c(C=C(C)C)c(C(=O)N2CCNCC2)cc(-c2nc(-c3ccc(C(F)(F)F)cc3)cs2)c1=O [Compound 586]	< 300	< 300		
CCOc1ncc(C)cc1-n1c(C=C(C)C)c(C(=O)N2CCNCC2)cc(-c2nc(-c3ccc(C(F)(F)F)cc3)cs2)c1=O [Compound 587]	< 300	< 300		
CC(C)=Cc1c(C(=O)N2CCNCC2)cc(-c2nc(-c3ccc(Cl)cc3)cs2)c(=O)n1-c1ccccc1OCC(F)(F)F [Compound 589]	< 300	< 300		
O=C1CCCc2c1cc(-c1nc(-c3ccc(Cl)cc3)cs1)c(=O)n2-c1ccccc1CCO [Compound 590]	5000 to 20000	5000 to 20000		
CCc1cccc(CC)c1-n1c(C=C(C)C)c(C(=O)N2CCNC(C(=O)O)C2)cc(-c2nc(-c3ccc(Cl)cc3)cs2)c1=O (stereo not drawn) [Compound 591]	< 300	< 300		
CCOc1ncc(C)cc1-n1c(C=C(C)C)c(C(=O)N2CCNCC2)cc(-c2nc(-c3ccc(C(F)F)cn3)cs2)c1=O [Compound 592]	300 to 1000	1000 to 5000		
CCc1cccc(CC)c1-n1c(C=C(C)C)c(C(=O)N2CCNC(=O)C2)cc(-c2ccn(-c3ccc(Cl)cc3)n2)c1=O [Compound 593]	< 300	< 300		
Cc1ccc(-n2c3c(cc(-c4nc(-c5ccc(Cl)cc5)cs4)c2=O)C(=O)CC(C)(C)C3)c(Cl)c1 [Compound 594]	> 20000	1000 to 5000		
Cc1[nH]c(=O)c(-c2nc(-c3ccc(Cl)cc3)cs2)cc1C(=O)N1CCNCC1 [Compound 595]	> 20000	> 20000		
CCc1ccccc1-n1c(C=C(C)C)c(C(=O)N2CCNCC2)cc(-c2nc(-c3ccc(Cl)cc3)cs2)c1=O [Compound 596]	< 300	< 300		
COc1ccc(-n2c3c(cc(-c4nc(-c5ccc(Cl)cc5)cs4)c2=O)C(=O)CC(C)(C)C3)c(OC)c1 [Compound 597]	> 20000	> 20000		
CCOc1ccc(-c2csc(-c3cc(C(=O)N4CCNCC4)c(C=C(C)C)n(-c4c(CC)cccc4CC)c3=O)n2)cc1 [Compound 598]	< 300	< 300		
CCc1cccc(CC)c1-n1c(C=C(C)C)c(C(=O)N2CCNCC2CC(=O)O)cc(-c2nc(-c3ccc(Cl)cc3)cs2)c1=O (stereo not drawn) [Compound 599]	< 300	< 300		
CCc1ccc(Cl)c(CC)c1-n1c(C)c(C(=O)N2CCNCC2)cc(-c2nc(-c3ccc(Cl)cc3)cs2)c1=O [Compound 600]	300 to 1000	1000 to 5000		
CCc1cccc(CC)c1-n1c(CC(C)C)c(C(=O)N2CCNCC2)cc(-c2nc(-c3ccc(Cl)cc3)c(Br)s2)c1=O [Compound 601]	300 to 1000	< 300		
CC(C)=Cc1c(C(=O)N2CCNCC2)cc(-c2nc(-c3ccc(Cl)cc3)cs2)c(=O)n1-c1cc(Cl)cnc1OC(C)C [Compound 602]	< 300	< 300		
COc1ccc(C#N)cc1-n1c(C=C(C)C)c(C(=O)N2CCNCC2)cc(-c2nc(-c3ccc(Cl)cc3)cs2)c1=O [Compound 603]	300 to 1000	300 to 1000		
CCc1cccc(CC)c1-n1c(C=C(C)C)c(C(=O)N2CCNC[C@@H]2C)cc(-c2nc(-c3ccc(C(F)(F)F)cc3)cs2)c1=O [Compound 604]	< 300	< 300		
CCc1cccc(CC)c1-n1c(C=C(C)C)c(C(=O)N2CCNCC2)cc(-c2nc(-c3ccc(OC4CC4)cc3)cs2)c1=O [Compound 605]	< 300	< 300		
CCc1cccc(CC)c1-n1c(C=C(C)C)c(C(=O)N2CCNCC2)cc(-c2ccn(-c3ccc(C4CC4)cc3)n2)c1=O [Compound 606]	< 300	< 300		

Structure (SMILES)	IC50 (IDH1 R132H; [1]) [nM]	IC50 (IDH1 R132C; [2]) [nM]	IC50 (IDH1 R132H; [3]) [nM]	IC50 (IDH1 R132C; [4]) [nM]
CCc1cccc(CC)c1-n1c(CC(C)C)c(C(=O)N2CCNCC2)cc(-c2nc(-c3ccc(Cl)c(F)c3)c(C)s2)c1=O [Compound 608]	< 300	< 300		
CCOc1cccc(OCC)c1-n1c2c(cc(-c3nc(-c4ccc(Cl)cc4)cs3)c1=O)C(=O)CC(C)(C)C2 [Compound 609]	300 to 1000	300 to 1000		
CCc1cccc(CC)c1-n1c2c(cc(-c3nc(-c4ccc(Cl)cc4)cs3)c1=O)C(=O)N1CCCCC21 (stereo not drawn) [Compound 610]	300 to 1000	300 to 1000		
CCc1cccc(CC)c1-n1c(CC2CCOC2)c(C(=O)N2CCNCC2)cc(-c2nc(-c3ccc(Cl)cc3)cs2)c1=O (stereo not drawn) [Compound 611]	< 300	< 300		
CCc1cccc(CC)c1-n1c(CC2CCCCC2)c(C(=O)N2CCNCC2)cc(-c2nc(-c3ccc(Cl)cc3)cs2)c1=O [Compound 612]	< 300	< 300		
Cc1ccc(Cl)c(-n2c3c(cc(-c4nc(-c5ccc(Cl)cc5)cs4)c2=O)C(=O)CC(C)(C)C3)c1 [Compound 613]	300 to 1000	300 to 1000		
COc1ncccc1-n1c(C=C(C)C)c(C(=O)N2CCNCC2)cc(-c2nc(-c3ccc(Cl)cc3)cs2)c1=O [Compound 614]	< 300	< 300		
CCc1cccc(CC)c1-n1c(CC2CCNCC2)c(C(=O)N2CCNCC2)cc(-c2nc(-c3ccc(Cl)cc3)cs2)c1=O [Compound 615]	> 20000	> 20000		
CC(C)=Cc1c(C(=O)N2CCNCC2)cc(-c2nc(-c3ccc(Cl)cc3)cs2)c(=O)n1-c1ccc[nH]c1=O [Compound 616]	5000 to 20000	5000 to 20000		
CCc1cccc(CC)c1N1C(=O)C(c2nc(-c3ccc(Cl)cc3)cs2)CC(CN2CCNCC2)=C1CC(C)C (stereo not drawn) [Compound 617]			1000 to 5000	1000 to 5000
CCc1ncc(F)cc1-n1c(C=C(C)C)c(C(=O)N2CCNCC2)cc(-c2nc(-c3ccc(C(F)F)cn3)cs2)c1=O [Compound 619]			1000 to 5000	1000 to 5000
CCc1cccc(CC)c1-n1c(C=C(C)C)c(C(=O)N2CCNCC2)cc(-c2nc(-c3ccc(C4CC4)cc3)cs2)c1=O [Compound 620]			< 300	< 300
CCc1cccc(CC)c1-n1c(C=C(C)C)c(C(=O)N2CCNCC2CC(C)C)cc(-c2nc(-c3ccc(Cl)cc3)cs2)c1=O (stereo not drawn) [Compound 621]			300 to 1000	< 300
CCc1cccc(CC)c1-n1c(CC2CCCC2)c(C(=O)N2CCNCC2)cc(-c2nc(-c3ccc(Cl)cc3)cs2)c1=O [Compound 622]			< 300	< 300
CCc1cccc(CC)c1-n1c(C=C(C)C)c(C(=O)N2CCC(NC)CC2)cc(-c2nc(-c3ccc(Cl)cc3)cs2)c1=O [Compound 623]			< 300	< 300
CCc1cccc(CC)c1-n1c(CC(C)C)c(C(=O)N2CCNCC2)cc(-c2nc(-c3ccc(Cl)c(C)c3)c(C)s2)c1=O [Compound 624]			300 to 1000	< 300
CCOc1ccc(Cl)cc1-n1c(C=C(C)C)c(C(=O)N2CCNCC2)cc(-c2nc(-c3ccc(C(F)(F)F)nc3)cs2)c1=O [Compound 626]			< 300	300 to 1000
CCc1cccc(CC)c1-n1c(CC2CCNC2)c(C(=O)N2CCNCC2)cc(-c2nc(-c3ccc(Cl)cc3)cs2)c1=O (stereo not drawn) [Compound 627]			5000 to 20000	5000 to 20000
CCc1cccc(C)c1-n1c2c(cc(-c3nc(-c4ccc(Cl)cc4)cs3)c1=O)C(=O)CCC2 [Compound 628]			1000 to 5000	1000 to 5000
CCc1cccc(CC)c1-n1c(C=C(C)C)c(C(=O)N2CCCC(N)C2)cc(-c2nc(-c3ccc(Cl)cc3)cs2)c1=O (stereo not drawn) [Compound 629]			< 300	< 300
COc1ccc(F)cc1-n1c(C=C(C)C)c(C(=O)N2CCNCC2)cc(-c2nc(-c3ccc(Cl)cc3)cs2)c1=O [Compound 630]			< 300	< 300
CCc1cccc(CC)c1-n1c(C=C(C)C)c(C(=O)N2CCNCC2C)cc(-c2nc(-c3ccc(Cl)cc3)cs2)c1=O (stereo not drawn) [Compound 631]			< 300	< 300
